Measurements: patent publication US6080755A, “1,9-diazabicyclo[4.3.0]nona-3,8-diene derivatives” (Wyeth Lederle Japan, Ltd., priority 1995, dated 2000)

Each molecule was assayed on Isolated Rat Hearts (assay: Cardioprotective Effect in Ischemia/Reperfusion Model of Isolated Rat Hearts). Conditions: 10^-5 mol of test compound in 0.04% DMSO; 25 min global ischemia, after reperfusion for 30 minutes.
Set-up: species or system Male Sprague-Dawley rats
Procedure: Cardioprotective Effect in Ischemia/Reperfusion Model of Isolated Rat Hearts:
Male Sprague-Dawley rats (300-500 g) were used. The rats were anesthetized using 40 mg/kg of sodium pentobarbital (i.p.) after treating with heparin (i.v. 1000 U/kg). The hearts were excised and moved quickly to a Langendorlf apparatus where they were perfused with Krebs-Henseleit bicarbonate buffer (118 mM of NaCl; 4.7 mM of KCl; 2.55 mM of CaCl2; 1.18 mM of KH2 PO4; 24.88 mM of NaHCO3; 11.1 mM of glucose) bubbled with mixture gas of 95% oxygen and 5% carbon dioxide at a constant perfusion pressure (75 mmHg). The parameters of cardiac function were determined as follows.
The physiological saline-filled latex balloon was inserted into the left ventricle and connected to a pressure transducer for measurement of left ventricular pressure (LVP). The volume of the balloon was adjusted to produce an LV end-diastolic pressure at 5-10 mmHg. The heart rate was determined with a tachometer and coronary flow was determined with an extra-corporeal electromagnetic flow tube.
For the equilibration, the hearts were perfused for initial 15-20 minutes. Then, treatment with the test compounds was begun 15 minutes before the onset of ischemia. Global ischemia was initiated by shutting off the perfusate flow and this was maintained for 25 minutes. The hearts were submerged in 37° C. buffer during ischemia. Reperfusion was then begun with the test compounds and the hearts were allowed to recover for 30 minutes. The cardiac function was measured before the treatment of the test compounds, before ischemia and after reperfusion. The hearts were treated with 10^-5 mol of the test compounds dissolved in 0.04% of dimethylsulfoxide (DMSO), in comparison with the vehicle, i.e., 0.04% of DMSO alone, in the perfusate.
The cardioprotective effects of the test compounds were evaluated on the basis of the extent of recovery of LVP after reperfusion for 30 minutes.

**Q.** “6,8-Diethoxycarbonyl-3(or 4)-methy-1,9-diazabicyclo [4.3.0]nona-3,8-dien-7-ol [Compound No. 35]” was tested. Which “LVDP(%): recovery of LVP, left ventricular developed pressure against the LVP before ischemia as 100%” value (“LVDP(%): recovery of LVP” below) did it give?
**A.** 50.6%

**Q.** For `COC(=O)C1=NN2C(c3ccc(C#N)cc3)C=CC(c3ccc(C#N)cc3)C2(C(=O)OC)C1O` (centres unmarked) [Compound No. 50, 6,8-Dimethoxycarbonyl-2,5-di(4-cyano)phenyl-7-hydroxy-1,9-diazabicyclo[4.3.0]nona-3,8-diene], which “LVDP(%): recovery of LVP” value is on record?
**A.** 69.8%

**Q.** How did the “LVDP(%): recovery of LVP” value turn out when `COC(=O)C1=NN2C(c3ccc([N+](=O)[O-])cc3)C=CC(c3ccc([N+](=O)[O-])cc3)C2(C(=O)OC)C1O` (centres unmarked) [Compound No. 53, 6,8-Dimethoxycarbonyl-2,5-di(4-nitro)phenyl-7-hydroxy-1,9-diazabicyclo[4.3.0]nona-3,8-diene] was run?
**A.** 60.0%

**Q.** `COC(=O)C1=NN2C(c3ccccc3)C=CC(c3ccccc3)C2(C(=O)OC)C1O` (centres unmarked) [Compound No. 31, 6,8-Dimethoxycarbonyl-2,5-diphenyl-1,9-diazabicyclo [4.3.0]nona-3,8-dien-7-ol] was tested. Which “LVDP(%): recovery of LVP” value did it give?
**A.** 85.1%

**Q.** `CCCOC(=O)C1=NN2C(c3ccccc3)C=CC(c3ccccc3)C2(C(=O)OCC)C1O` (centres unmarked) [Compound No. 139, 2,5-Diphenyl-6-ethoxycarbonyl-7-hydroxy-8-propoxycarbonyl-1,9-diazabicyclo[4.3.0]nona-3,8-diene] was tested. Which “LVDP(%): recovery of LVP” value did it give?
**A.** 62.5%

**Q.** How did the “LVDP(%): recovery of LVP” value turn out when `CCN(CC)C(=O)C1=NN2C(c3ccccc3)C=CC(c3ccccc3)C2(C(=O)OC)C1O` (centres unmarked) [Compound No. 173, 8-Diethylcarbamoyl-2,5-diphenyl-7-hydroxy-6-methoxycarbonyl-1,9-diazabicyclo[4.3.0]nona-3,8-diene] was run?
**A.** 61.0%

**Q.** `CCOC(=O)C1=NN2CC(C)=C(C)CC2(C(=O)OCC)C1N` (centres unmarked) [Compound No. 81, 7-Amino-6,8-diethoxycarbonyl-3,4-dimethyl-1,9-diazabicyclo[4.3.0]nona-3,8-diene] was tested. Which “LVDP(%): recovery of LVP” value did it give?
**A.** 56.2%

**Q.** `COC(=O)C1=NN2C(c3ccc(C)cc3)C=CC(c3ccc(C)cc3)C2(C(=O)OC)C1O` (centres unmarked) [Compound No. 52, 6,8-Dimethoxycarbonyl-2,5-di-p-tolyl-7-hydroxy-1,9-diazabicyclo[4.3.0]nona-3,8-diene] was tested. Which “LVDP(%): recovery of LVP” value did it give?
**A.** 49.3%

**Q.** With `CCCOC(=O)C1=NN2CC(C)=C(C)CC2(C(=O)OCCC)C1O` (centres unmarked) [Compound No. 124, 3,4-Dimethyl-6,8-dipropoxycarbonyl-7-hydroxy-1,9-diazabicyclo[4.3.0]nona-3,8-diene] as the molecule, how does the “LVDP(%): recovery of LVP” value read?
**A.** 84.0%

**Q.** With `COC(=O)C1=NN2C(c3ccc(C(C)=O)cc3)C=CC(c3ccc(C(C)=O)cc3)C2(C(=O)OC)C1O` (centres unmarked) [Compound No. 51, 2,5-Bis-(4-acetylphenyl)-6,8-dimethoxycarbonyl-7-hydroxy-1,9-diazabicyclo[4.3.0]nona-3,8-diene] as the molecule, how does the “LVDP(%): recovery of LVP” value read?
**A.** 55.0%

**Q.** With `CCOC(=O)C1=NN2CC(C)=C(C)CC2(C(=O)OCC)C1S` (centres unmarked) [Compound No. 82, 6,8-Diethoxycarbonyl-3,4-dimethyl-7-mercapto-1,9-diazabicyclo[4.3.0]nona-3,8-diene] as the molecule, how does the “LVDP(%): recovery of LVP” value read?
**A.** 61.5%

**Q.** How did the “LVDP(%): recovery of LVP” value turn out when `CCOC(=O)C1=NN2CC(C)=C(C)CC2(C(=O)OCC)C1O` (centres unmarked) [Compound No. 29, 6,8-Diethoxycarbonyl-3,4-dimethylbicyclo[4.3.0]-1,9-diazanona-3,8-dien-7-ol] was run?
**A.** 44.2%

**Q.** Which “LVDP(%): recovery of LVP” value does the source give for `COC(=O)C1=NN2C(c3ccccc3)C=CC(c3ccccc3)C2(C(=O)OC)C1N` (centres unmarked) [Compound No. 94, 7-Amino-6,8-dimethoxycarbonyl-2,5-diphenyl-1,9-diazabicyclo[4.3.0]nona-3,8-diene] here?
**A.** 73.5%

**Q.** Which “LVDP(%): recovery of LVP” value does the source give for `COC(=O)C1=NN2C(c3cccc([N+](=O)[O-])c3)C=CC(c3cccc([N+](=O)[O-])c3)C2(C(=O)OC)C1O` (centres unmarked) [Compound No. 48, 6,8-Dimethoxycarbonyl-2,5-bis(3-nitrophenyl)-7-hydroxy-1,9-diazabicyclo[4.3.0]nona-3,8-diene] here?
**A.** 72.4%
